In the oligonucleotide strings, read from the 5' end, every base follows the letter of its sugar. An asterisk marks phosphorothioate; unmarked linkages are phosphodiester. Other units and linkages are bracketed, terminal groups are in braces. A string of capitals states the bases alone. m = 2'-O-methyl
biological target: T1, human TLR7 (Homo sapiens, UniProt Q9NYK1); experiment: HEK-TLR7 NF-κB-luciferase reporter, R848 stimulation; type: cell-based; conditions: 3mer 2'OMe ASO at 400 nM; HEK-TLR7; value relative to Ligand only = 1.000, NT = 0.000
T1 construct: HA; host or cells: 293XL-hTLR7-HA (HEK293)
T1 sequence (Q9NYK1 27-1049): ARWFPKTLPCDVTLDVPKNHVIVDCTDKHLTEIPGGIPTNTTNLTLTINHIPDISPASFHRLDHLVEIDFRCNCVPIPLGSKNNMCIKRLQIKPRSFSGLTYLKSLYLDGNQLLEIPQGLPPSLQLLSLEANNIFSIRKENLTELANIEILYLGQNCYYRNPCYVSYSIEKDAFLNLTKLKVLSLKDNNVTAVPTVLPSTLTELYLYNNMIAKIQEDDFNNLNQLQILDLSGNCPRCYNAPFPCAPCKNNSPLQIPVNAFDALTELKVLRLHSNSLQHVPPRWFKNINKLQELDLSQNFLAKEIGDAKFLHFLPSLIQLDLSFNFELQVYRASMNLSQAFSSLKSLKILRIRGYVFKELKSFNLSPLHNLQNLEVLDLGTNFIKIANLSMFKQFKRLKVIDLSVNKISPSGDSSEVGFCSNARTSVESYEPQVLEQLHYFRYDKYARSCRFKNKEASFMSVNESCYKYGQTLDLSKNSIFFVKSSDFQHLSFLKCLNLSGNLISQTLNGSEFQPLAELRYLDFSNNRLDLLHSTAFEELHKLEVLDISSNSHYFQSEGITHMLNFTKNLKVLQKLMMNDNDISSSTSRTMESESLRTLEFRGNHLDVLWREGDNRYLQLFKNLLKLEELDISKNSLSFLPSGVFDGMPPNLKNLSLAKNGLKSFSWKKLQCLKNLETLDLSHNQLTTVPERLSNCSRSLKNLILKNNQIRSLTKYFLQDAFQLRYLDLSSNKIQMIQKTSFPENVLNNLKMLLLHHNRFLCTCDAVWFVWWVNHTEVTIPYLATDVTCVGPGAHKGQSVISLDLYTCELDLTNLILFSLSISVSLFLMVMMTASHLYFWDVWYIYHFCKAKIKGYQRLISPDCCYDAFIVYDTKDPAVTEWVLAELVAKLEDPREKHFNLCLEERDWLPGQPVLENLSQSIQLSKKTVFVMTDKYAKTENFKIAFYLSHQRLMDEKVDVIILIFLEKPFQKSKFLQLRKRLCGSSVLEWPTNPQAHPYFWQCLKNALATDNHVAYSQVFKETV
Description: In such examples, inhibition of TLR7 activity can be identified by observation of an overall decreased TLR7 response of the cell population, or a lower proportion of cells having TLR7-positive activity as compared to positive control condition in which cells are treated with TLR7 agonist in the absence of the oligonucleotide (or in the presence of an appropriate control inhibitory agent). In one example, 293XLhTLR7 (referred to as HEK-TLR7) cells are transfected with pNF-κB-Luc4 reporter, incubated with an oligonucleotide, and then stimulated with R848. TLR7 activity can be determined by a luciferase assay, which measures activated NF-κB by luminescence. TLR7 activity can also be analysed by measuring cytokine levels, for example by ELISA. […] TLR7 activity may then be assessed by the gene or protein expression of TLR7-responsive genes, such as Tnfα and Oas3.
For cGAS stimulations, cells were treated for indicated duration with ASOs, prior to transfection with ISD70 (human cells) or ISD45 (mouse cells) (the ASOs were not washed off prior to ISD transfection unless otherwise indicated). The cGAS ligands ISD45 (Stetson and Medzhitov, 2006) and ISD70 (also known as VACV-70 (Unterholzner et al., 2010)) (Table 1) were resuspended as follows: 5 1d of sense and 5 μl of antisense strands at 10 μg/μl were added to 90 μl PBS under sterile conditions, heated at 75° C. for 30 min, prior to letting cool down at room temperature and aliquoting (stock at 1 μg/1 l). The ISDs were transfected at a concentration of […] at a ratio of 1 μg:1 μl with Lipofectamine 2000 in Opti-MEM (Thermo Fisher Scientific). HEK-TLR3, HEK-TLR7 and […] were treated with indicated concentration of ASOs for 20-50 min, prior to stimulation with poly(I:C) (Invivogen), R848 (Invivogen), Motolimod (MedChemExpress) and the Class B CpG oligonucleotides ODN 2006 (synthesised by IDT and resuspended in RNase-free TE buffer [Table 1]), respectively. The TLR2/1 agonist PAM3CSK4 (Invivogen), the TLR4 agonist lipopolysaccharide (Invivogen), the Class B CpG oligonucleotides ODN 1826 (synthesised by IDT and resuspended in RNase-free TE buffer), the mouse Sting agonist DMXAA (Cayman) and the human STING agonist (compound #3 from (Raanjulu et al., 2018), referred to as GSK herein—kind gift from Cancer Therapeutics CRC, Australia) were used at indicated concentrations. Aspirin (Sigma—A2093) was resuspended in pure medium to 10 mM, filter sterilised and added to the cells at 2 mM final. All ASOs were synthesised by Integrated DNA Technologies (IDT), and resuspended in RNase-free TE buffer, pH 8.0 (Thermo Fisher Scientific). Cell viability was assessed by adding 1× fresh resazurin solution to the wells (10λ solution made up with 7 mg resazurin [Sigma—R7017] dissolved in 3.5 ml PBS, sterile filtered at […]) for 4 h, prior to reading at with a Fluostar OPTIMA (BMG LABTECH) plate-reader (fluorescence: Excitation 535 nm, Emission 590); wells with medium only and 1× resazurin were used as blanks.
Following transfection, the cells were collected from the 6-wells and aliquoted into 96-wells, just before ASO and overnight TLR stimulation (as above described). Similarly, the LL171 cells expressing and ISRE-Luc reporter were treated overnight.

Sequence | TLR7 400 nM
AAU (antisense mA*mA*mU) | 1.340
ACU (antisense mA*mC*mU) | 1.322
AGU (antisense mA*mG*mU) | 1.025
AUA (antisense mA*mU*mA) | 1.171
AUG (mA*mU*mG) | 0.987
AUU (mA*mU*mU) | 1.221
CAU (mC*mA*mU) | 1.288
CCU (mC*mC*mU) | 1.210
CGU (mC*mG*mU) | 1.372
CUA (mC*mU*mA) | 1.388
CUC (mC*mU*mC) | 1.288
CUG (mC*mU*mG) | 1.405
GCU (mG*mC*mU) | 1.339
GGU (mG*mG*mU) | 0.938

same assay, conditions: 3mer 2'OMe ASO at 2 uM; HEK-TLR7; value relative to Ligand only = 1.000, NT = 0.000

Sequence | TLR7 2 uM
AAU (antisense mA*mA*mU) | 0.888
ACU (antisense mA*mC*mU) | 0.916
AGU (antisense mA*mG*mU) | 0.952
AUA (antisense mA*mU*mA) | 0.905
AUG (mA*mU*mG) | 0.602
AUU (mA*mU*mU) | 0.700
CAU (mC*mA*mU) | 0.995
CCU (mC*mC*mU) | 0.880
CGU (mC*mG*mU) | 0.963
CUA (mC*mU*mA) | 0.953
CUC (mC*mU*mC) | 0.984
CUG (mC*mU*mG) | 0.804
GCU (mG*mC*mU) | 0.852
GGU (mG*mG*mU) | 0.847

same assay, conditions: ASO 100 nM; relative to R848 only, given as fraction

Sequence | TLR7 100 nM (averaged NF-κB-Luciferase level relative to R848 condition)
ACACTTCGTGGGGTCC (antisense; LNA-modified, pattern not given here) [HPRT LNA-665 V1] | 0.548
CAACACTTCGTGGGGT (antisense; LNA-modified, pattern not given here) [HPRT LNA-667 V1] | 0.663
CCAAGATCAGCAGTCT (antisense; LNA-modified, pattern not given here) [CTNN2B-2341 LNA KL] | 0.882
CCATCCATGAGGTCCT (antisense; LNA-modified, pattern not given here) [CTNN2B-2545 LNA V1] | 0.992
GATAGCACCTTCAGCA (antisense; LNA-modified, pattern not given here) [CTNN2B-1294 LNA KL] | 0.434
GCAGGCTCAGTGATGT (antisense; LNA-modified, pattern not given here) [CTNN2B-1642 LNA V1] | 0.676
GCATCCACCACGTCGT (antisense; LNA-modified, pattern not given here) [EGFR-3267 LNA V1] | 0.555
GCCATCCACTTGATAG (antisense; LNA-modified, pattern not given here) [EGFR-2874 LNA V1] | 0.671
GCCATGCTGGCTCGGA (antisense; LNA-modified, pattern not given here) [CAMSAP1-2584 LNA V1] | 0.638
GCCATGTTTCTTCTTG (antisense; LNA-modified, pattern not given here) [MB21D1-1248 LNA KL] | 0.816
GGCTGGAATCCGAGTT (antisense; LNA-modified, pattern not given here) [EGFR-4705 LNA KL] | 0.417
GGTTACGGCTCAGTAT (antisense; LNA-modified, pattern not given here) [CAMSAP1-4295 LNA KL] | 0.438
GTATCGAAAGAGTCTG (antisense; LNA-modified, pattern not given here) [EGFR-3908 LNA KL] | 0.562
GTCCCCTGTTGACTGG (antisense; LNA-modified, pattern not given here) [HPRT LNA-489 KL] | 0.557
GTCTTGGCTTCGTGGA (antisense; LNA-modified, pattern not given here) [MB21D1-522 LNA V1] | 0.652
GTGTCTGGAAGCTTCC (antisense; LNA-modified, pattern not given here) [CTNN2B-809 LNA V1] | 0.355

same assay, conditions: ASO 500 nM; relative to R848 only, given as fraction

Sequence | TLR7 500 nM (averaged NF-κB-Luciferase level relative to R848 condition)
ACACTTCGTGGGGTCC (antisense; LNA-modified, pattern not given here) [HPRT LNA-665 V1] | 0.086
CAACACTTCGTGGGGT (antisense; LNA-modified, pattern not given here) [HPRT LNA-667 V1] | 0.476
CCAAGATCAGCAGTCT (antisense; LNA-modified, pattern not given here) [CTNN2B-2341 LNA KL] | 0.697
CCATCCATGAGGTCCT (antisense; LNA-modified, pattern not given here) [CTNN2B-2545 LNA V1] | 0.644
GATAGCACCTTCAGCA (antisense; LNA-modified, pattern not given here) [CTNN2B-1294 LNA KL] | 0.049
GCAGGCTCAGTGATGT (antisense; LNA-modified, pattern not given here) [CTNN2B-1642 LNA V1] | 0.189
GCATCCACCACGTCGT (antisense; LNA-modified, pattern not given here) [EGFR-3267 LNA V1] | 0.085
GCCATCCACTTGATAG (antisense; LNA-modified, pattern not given here) [EGFR-2874 LNA V1] | 0.123
GCCATGCTGGCTCGGA (antisense; LNA-modified, pattern not given here) [CAMSAP1-2584 LNA V1] | 0.175
GCCATGTTTCTTCTTG (antisense; LNA-modified, pattern not given here) [MB21D1-1248 LNA KL] | 0.021
GGCTGGAATCCGAGTT (antisense; LNA-modified, pattern not given here) [EGFR-4705 LNA KL] | 0.041
GGTTACGGCTCAGTAT (antisense; LNA-modified, pattern not given here) [CAMSAP1-4295 LNA KL] | 0.140
GTATCGAAAGAGTCTG (antisense; LNA-modified, pattern not given here) [EGFR-3908 LNA KL] | 0.113
GTCCCCTGTTGACTGG (antisense; LNA-modified, pattern not given here) [HPRT LNA-489 KL] | 0.123
GTCTTGGCTTCGTGGA (antisense; LNA-modified, pattern not given here) [MB21D1-522 LNA V1] | 0.056
GTGTCTGGAAGCTTCC (antisense; LNA-modified, pattern not given here) [CTNN2B-809 LNA V1] | 0.067

— patent US20240384268A1, “Oligonucleotides” (Hudson Institute of Medical Research, priority 2021, published 2024)
